Several values for one entry are separate records, joined by “and”; a condition that tells them apart may be missing. Identical values can stand only once. Marks after values point to notes of the source that are not given here.
Experiments:
[1] = tested on: H1299 cells; test: Standard glucose uptake assay, H1299; type: cell-based, human; details: for Glucose transport inhibition (%) / level of glucose transport inhibition (in words): H1299; for % inhibition of basal glucose transport: Table 3, 30 μM in H1299 cells
Method: (§1) Briefly, H1299 cancer cells were treated with or without the compounds (30 μM) in triplicates for 10 min before the glucose uptake assay. Cellular glucose uptake was measured by incubating cells in the glucose-free KRP buffer with […] [^3H]2-deoxyglucose (specific activity, 40 Ci/mmol) for 30 min in the absence or presence of compounds. After the cells were washed with ice-cold PBS and lysed by 0.2 N NaOH, the cell lysates were transferred to scintillation counting vials and the radioactivity in the cell lysates was quantified by liquid scintillation counting. Cell growth measurements were performed using an MTT assay in hexads in a 96-well tissue culture plate with 5,000 cells plated in each well. The cells were incubated in presence or absence of the compounds (30 μM) for 48 h. After incubation, cell viabilities were assayed using a 96-well SPECTRAMAX™ absorbance/fluorescence plate reader (Molecular Devices).
Cancer cells are treated with or without the compounds for 10 min before the glucose uptake assay. Cellular glucose uptake will be measured by incubating cells in glucose-free RPMI 1640 with […] [^3H]2-deoxyglucose (specific activity, 40 Ci/mmol) for 30 min in the absence and presence of compounds. After the cells are washed with ice-cold PBS and lysed, the cell lysates will be transferred to scintillation counting vials and the radioactivity in the cell lysates is quantified by liquid scintillation counting.

[2] = tested on: H1299 lung cancer cells; test: MTT cell growth / viability assay, H1299; type: cell-based, human
Method: as §1
MTT assays are performed by the following well-established method. In a 96 well tissue culture plate 10,000 cells are plated in each well. The cells are incubated in presence or absence of the compounds for 18 h. 3-(4,5-Dimethylthiazol-2-yl)-2,5-diphenyltetrazolium bromide (MTT) is dissolved in PBS (10 mg/ml) and filter sterilized. Three hours before the end of the incubation 20 μL of MTT solution is added to each well containing cells in a 96-well plate. The plate is incubated in an incubator at 37° C. for 3 h. Media is aspirated gently and 200 μL of DMSO is added to each well to dissolve formazan crystals. The absorbance is measured at 550 nm for cell viability.

[3] = tested on: cancer cells; test: Anticancer screens of hydrolysis products; type: cell-based
Source text: (§2) In summary, a library of multiphenolic ester compounds as novel inhibitors of basal glucose transport and anticancer agents with a potential new target, basal glucose transport, were synthesized.

[4] = tested on: basal glucose uptake; test: Glucose uptake of possible hydrolyzed products (FIG. 2); type: cell-based
Source text: as §2

[5] = HPLC analysis of compound stability in human serum; type: in vitro ADME; details: for Compound concentration (%) after incubation with serum: human serum, 37 C
Method: A total of 2.5 ml of compound solution was added to 22.5 ml of human serum and the mixture was incubated at 37 C for various times. The final concentration of the compound in serum was 6.8 mM. After incubation, […] of acetonitrile was added to the mixture, centrifuged to remove proteins before HPLC analysis. The relative concentration of samples at 0 h (in serum but without incubation) was arbitrarily assigned a value of 100% and all other samples were compared to the 0 h samples.

[6] = Table 2, 30 μM, untreated cells 0% inhibition

Compound	Glucose transport inhibition (%) [1, 6] [%]	Cell growth inhibition (%) ([2]; Table 2, 30 μM, 48 h)	Glucose transport inhibition (%) ([1]; Table 12)	further results
O=C(Oc1ccc(Cl)cc1OC(=O)c1cc(O)c(O)c(O)c1)c1cc(O)c(O)c(O)c1 [Compound 1b]	84.4 ± 0.1	–	–	–
O=C(Oc1cccc(F)c1OC(=O)c1cc(O)c(O)c(O)c1)c1cc(O)c(O)c(O)c1 [Compound 1c]	81.1 ± 1.1	–	–	% inhibition of basal glucose transport [1]: 81.0 ± 1.1%
O=C(Oc1ccccc1OC(=O)c1cc(O)c(O)c(O)c1)c1cc(O)c(O)c(O)c1 [Compound 1d]	32.1 ± 6.2	–	–	level of glucose transport inhibition (in words) ([1]; 30 μM): lower levels of inhibition relative to 1a and 2a
COc1cccc(OC(=O)c2cc(O)cc(O)c2)c1OC(=O)c1cc(O)cc(O)c1 [Compound 1e]	69.4 ± 3.0	–	–	level of glucose transport inhibition (in words) ([1]; 30 μM): little to no inhibition
O=C(Oc1ccc(Cl)cc1OC(=O)c1cc(O)cc(O)c1)c1cc(O)cc(O)c1 [Compound 1f]	95.2 ± 0.2	38.8 ± 6.9	–	% inhibition of basal glucose transport ([1]; listed as WZB-114): 96.1 ± 0.1%
O=C(Oc1cccc(F)c1OC(=O)c1cc(O)cc(O)c1)c1cc(O)cc(O)c1 [Compound 1g]	94.0 ± 0.8	35.0 ± 7.6	–	% inhibition of basal glucose transport ([1]; listed as WZB-113): 96.7 ± 1.6%
COc1cccc(OC(=O)c2ccc(O)c(O)c2)c1OC(=O)c1ccc(O)c(O)c1 [Compound 1h]	0	32.4 ± 2.7	–	level of glucose transport inhibition (in words) ([1]; 30 μM): little to no inhibition
O=C(Oc1ccc(Cl)cc1OC(=O)c1ccc(O)c(O)c1)c1ccc(O)c(O)c1 [Compound 1i]	94.4 ± 0.4	45.2 ± 7.6	–	–
O=C(Oc1cccc(F)c1OC(=O)c1ccc(O)c(O)c1)c1ccc(O)c(O)c1 [Compound 1j]	88.7 ± 1.8	41.5 ± 5.5	–	–
COc1cccc(OC(=O)c2ccccc2O)c1OC(=O)c1ccccc1O [Compound 1k]	50.5 ± 7.6	18.0 ± 4.4	–	–
O=C(Oc1ccc(Cl)cc1OC(=O)c1ccccc1O)c1ccccc1O [Compound 1l]	51.6 ± 5.9	26.6 ± 2.3	–	–
O=C(Oc1cccc(F)c1OC(=O)c1ccccc1O)c1ccccc1O [Compound 1m]	51.0 ± 6.6	–	–	–
COc1cccc(OC(=O)c2ccc(O)cc2)c1OC(=O)c1ccc(O)cc1 [Compound 1n]	86.5 ± 2.8	36.6 ± 6.7	–	–
O=C(Oc1ccc(Cl)cc1OC(=O)c1ccc(O)cc1)c1ccc(O)cc1 [Compound 1o]	79.0 ± 8.7	–	–	–
O=C(Oc1cccc(F)c1OC(=O)c1ccc(O)cc1)c1ccc(O)cc1 [Compound 1p]	92.6 ± 0.7	35.9 ± 4.7	–	–
O=C(Oc1ccccc1OC(=O)c1ccc(O)cc1)c1ccc(O)cc1 [Compound 1q]	57.5 ± 2.9	–	–	–
O=C(Oc1cccc(OC(=O)c2cc(O)cc(O)c2)c1OC(=O)c1cc(O)cc(O)c1)c1cc(O)cc(O)c1 [Compound 2b]	98.7 ± 0.8	41.0 ± 5.5	–	% inhibition of basal glucose transport ([1]; listed as WZB-111): 99.5 ± 0.3%
O=C(Oc1cccc(OC(=O)c2ccc(O)c(O)c2)c1OC(=O)c1ccc(O)c(O)c1)c1ccc(O)c(O)c1 [Compound 2c]	94.7 ± 0.4	42.2 ± 6.1	–	–

Compound	Glucose transport inhibition (%) [1, 6] [%]	Cell growth inhibition (%) ([2]; Table 2, 30 μM, 48 h)	Glucose transport inhibition (%) ([1]; Table 12)	further results
O=C(Oc1cccc(OC(=O)c2ccccc2O)c1OC(=O)c1ccccc1O)c1ccccc1O [Compound 2d]	74.7 ± 2.0	–	–	–
Oc1cccc(F)c1O [Compound 6c]	–	–	–	activity in anticancer screens [3]: none of these compounds showed any activity in anticancer screens; glucose uptake inhibition activity [4]: none of these compounds had any glucose uptake inhibition activity
COc1cc(C(=O)Oc2cccc(OC)c2OC(=O)c2cc(OC)c(OC)c(OC)c2)cc(OC)c1OC [Compound 7a]	33.3 ± 3.6	22.2 ± 3.4	–	level of glucose transport inhibition (in words) ([1]; 30 μM): dramatically decreased
COc1cc(C(=O)Oc2ccc(Cl)cc2OC(=O)c2cc(OC)c(OC)c(OC)c2)cc(OC)c1OC [Compound 7b]	1.7 ± 1.1	20.6 ± 2.1	–	level of glucose transport inhibition (in words) ([1]; 30 μM): dramatically decreased
COc1cc(C(=O)Oc2cccc(F)c2OC(=O)c2cc(OC)c(OC)c(OC)c2)cc(OC)c1OC [Compound 7c]	7.9 ± 2.6	19.6 ± 3.6	–	level of glucose transport inhibition (in words) ([1]; 30 μM, listed as WZB-101): dramatically decreased levels of activity
COc1cccc(C(=O)Oc2cccc(OC)c2OC(=O)c2cccc(OC)c2)c1 [Compound 7d]	32.1 ± 0.2	18.3 ± 4.3	–	–
Oc1cccc(O)c1O [Compound 8, pyrogallol]	–	–	–	activity in anticancer screens [3]: none of these compounds showed any activity in anticancer screens; glucose uptake inhibition activity [4]: none of these compounds had any glucose uptake inhibition activity
O=C(Nc1ccc(F)cc1NC(=O)c1cccc(O)c1)c1cccc(O)c1 [WZB-124]	–	–	89.7 ± 2.5^b %	Cell growth inhibition (%) ([2]; Table 12): 5.7 ± 2.1%
O=C(Nc1ccc(Cl)cc1NC(=O)c1cccc(O)c1)c1cccc(O)c1 [WZB-125]	–	–	83.7 ± 0.7%	Cell growth inhibition (%) ([2]; Table 12): 5.9 ± 1.4%
COc1cccc(OCc2cccc(O)c2)c1OCc1cccc(O)c1 [WZB-132]	–	–	60.0 ± 7.7%	Cell growth inhibition (%) ([2]; Table 12): 6.0 ± 2.2%
Oc1cccc(COc2cccc(F)c2OCc2cccc(O)c2)c1 [WZB-134]	–	–	92.5±2.2% and 92.6 ± 2.2%	Cell growth inhibition (%) ([2]; Table 12): 10.6±2.0%
Oc1cccc(CNc2ccc(Cl)cc2NCc2cccc(O)c2)c1 [WZB-138]	–	–	52.2 ± 9.7%	–
Oc1cccc(CNc2ccc(F)cc2NCc2cccc(O)c2)c1 [WZB-139]	–	–	39.2 ± 0.8%	–
Oc1cccc(COc2ccc(Cl)c(OCc3cccc(O)c3)c2)c1 [WZB-141]	–	–	96.5±0.5%	Compound concentration (%) after incubation with serum ([5]; 0 h (arbitrarily assigned 100%)): 100%; Compound concentration (%) after incubation with serum ([5]; 4 h): 103.5%; Compound concentration (%) after incubation with serum ([5]; 24 h): 109.7%; Compound concentration (%) after incubation with serum ([5]; 48 h): 87.4%; relative stability in serum ([5]; ether vs ester bond-containing compounds): much more stable in serum than ester bond-containing compounds WZB-115 and WZB-117; Compound concentration (%) after incubation with serum ([5]; l h): 100.3%; Cell growth inhibition (%) ([2]; Table 12): 39.5±1.8%
CN(C(=O)c1cccc(O)c1)c1ccc(Cl)cc1N(C)C(=O)c1cccc(O)c1 [WZB-142]	–	–	82.7 ± 6.8%	Cell growth inhibition (%) ([2]; Table 12): 14.2 ± 9.0%
CN(C(=O)c1cccc(O)c1)c1ccc(F)cc1N(C)C(=O)c1cccc(O)c1 [WZB-143]	–	–	85.7 ± 3.6%	Cell growth inhibition (%) ([2]; Table 12): 31.1 ± 7.9%
CN(Cc1cccc(O)c1)c1ccc(F)cc1N(C)Cc1cccc(O)c1 [WZB-144]	–	–	78.2±1.4%	Cell growth inhibition (%) ([2]; Table 12): 14.5±7.6%
CN(Cc1cccc(O)c1)c1ccc(Cl)cc1N(C)Cc1cccc(O)c1 [WZB-145]	–	–	73.2 ± 3.8%	Cell growth inhibition (%) ([2]; Table 12): 38.2 ± 6.6%
